#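 1) Cells in 96-well plates. 2) Compound, 48 h, 5 concentrations. 3) Linear interpolation between surrounding doses. 4) Unreached endpoint = highest concentration. The concentration for 50% growth inhibition is given as GI50.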 Calls of active or inactive are those of the source. Cut-off read from the data, not from the text of the source: active = GI50 up to about 1.1 µM and inactive = higher.
# Legend:
# Test in all cases: NCI-60 cell line screen, 48 h
# NCI-H226 = tested on: NCI-H226
# SNB-78 = tested on: SNB-78
# UACC-257 = tested on: UACC-257
# SNB-75 = tested on: SNB-75
# IGROV-1 = tested on: IGROV-1
# HOP-62 = tested on: HOP-62
# SK-OV-3 = tested on: SK-OV-3
# A549 = tested on: A549
# U-251 = tested on: U-251
# SK-MEL-28 = tested on: SK-MEL-28
# SF-295 = tested on: SF-295
# OVCAR-8 = tested on: OVCAR-8
# UO-31 = tested on: UO-31
# CAKI-1 = tested on: CAKI-1
# Malme-3M = tested on: Malme-3M
# A498 = tested on: A498
# OVCAR-5 = tested on: OVCAR-5
# HOP-92 = tested on: HOP-92
# HT-29 = tested on: HT-29
# HOP-18 = tested on: HOP-18
# CCRF-CEM = tested on: CCRF-CEM
# HCT-15 = tested on: HCT-15
# SF-268 = tested on: SF-268
# DMS-273 = tested on: DMS-273
# SF-539 = tested on: SF-539
# LXFL 529 = tested on: LXFL 529
# HL-60 = tested on: HL-60
# KM12 = tested on: KM12
# K562 = tested on: K562
# NCI-H522 = tested on: NCI-H522
# NCI-H23 = tested on: NCI-H23
# M19-MEL = tested on: M19-MEL
# DMS-114 = tested on: DMS-114
# HCC 2998 = tested on: HCC 2998
# UACC-62 = tested on: UACC-62
# SW-620 = tested on: SW-620
# SR = tested on: SR
# ACHN = tested on: ACHN
# EKVX = tested on: EKVX
# KM-20L2 = tested on: KM-20L2
# M14 = tested on: M14
# TK-10 = tested on: TK-10
# MOLT-4 = tested on: MOLT-4
# OVCAR-3 = tested on: OVCAR-3
# DLD-1 = tested on: DLD-1
# HCT-116 = tested on: HCT-116
# SK-MEL-2 = tested on: SK-MEL-2
# COLO 205 = tested on: COLO 205
# OVCAR-4 = tested on: OVCAR-4
# SN12C = tested on: SN12C
# SK-MEL-5 = tested on: SK-MEL-5
# MCF7 = tested on: MCF7
# 786-0 = tested on: 786-0
# T47D = tested on: T47D
# MDA-MB-435 = tested on: MDA-MB-435
# MDA-N = tested on: MDA-N
# RPMI-8226 = tested on: RPMI-8226
# PC-3 = tested on: PC-3
# LOX IMVI = tested on: LOX IMVI
# NCI-H460 = tested on: NCI-H460
# NCI/ADR-RES = tested on: NCI/ADR-RES
# MDA-MB-231 = tested on: MDA-MB-231
# Hs-578T = tested on: Hs-578T
# SNB-19 = tested on: SNB-19
# RXF 393 = tested on: RXF 393
# DU-145 = tested on: DU-145
# XF498 = tested on: XF498
# BT-549 = tested on: BT-549
compound,measurement,setting,value
O=P(Nc1cccc(Cl)c1)(Oc1ccccc1)N(CCCl)CCCl (stereo not drawn),GI50,NCI-H226,15 µM (inactive)
same,GI50,SNB-78,18.3 µM (inactive)
same,GI50,UACC-257,14.1 µM (inactive)
same,GI50,SNB-75,15.6 µM (inactive)
same,GI50,IGROV-1,15.8 µM (inactive)
same,GI50,HOP-62,16.6 µM (inactive)
same,GI50,SK-OV-3,> 100 µM (inactive)
same,GI50,A549,13.2 µM (inactive)
same,GI50,U-251,14.6 µM (inactive)
same,GI50,SK-MEL-28,16.6 µM (inactive)
same,GI50,SF-295,14.5 µM (inactive)
same,GI50,OVCAR-8,17 µM (inactive)
same,GI50,UO-31,85.9 µM (inactive)
same,GI50,CAKI-1,13.9 µM (inactive)
same,GI50,Malme-3M,14.9 µM (inactive)
same,GI50,A498,14.4 µM (inactive)
same,GI50,OVCAR-5,14.5 µM (inactive)
same,GI50,HOP-92,11.9 µM (inactive)
same,GI50,HT-29,14.8 µM (inactive)
same,GI50,HOP-18,24.9 µM (inactive)
same,GI50,CCRF-CEM,> 100 µM (inactive)
same,GI50,HCT-15,13.5 µM
same,GI50,SF-268,15.1 µM (inactive)
same,GI50,DMS-273,13.6 µM (inactive)
same,GI50,SF-539,16.7 µM (inactive)
same,GI50,LXFL 529,11.7 µM (inactive)
same,GI50,HL-60,70.6 µM (inactive)
same,GI50,KM12,14.8 µM (inactive)
same,GI50,K562,99.3 µM (inactive)
same,GI50,NCI-H522,99.5 µM (inactive)
same,GI50,NCI-H23,16.5 µM (inactive)
same,GI50,M19-MEL,18 µM (inactive)
same,GI50,DMS-114,12.7 µM (inactive)
same,GI50,HCC 2998,14.8 µM (inactive)
same,GI50,UACC-62,11.6 µM (inactive)
same,GI50,SW-620,16.7 µM (inactive)
same,GI50,SR,31.6 µM (inactive)
same,GI50,ACHN,16.7 µM (inactive)
same,GI50,EKVX,17.7 µM (inactive)
same,GI50,KM-20L2,13.3 µM (inactive)
same,GI50,M14,15.2 µM (inactive)
same,GI50,TK-10,13.7 µM (inactive)
same,GI50,MOLT-4,17.4 µM (inactive)
same,GI50,OVCAR-3,14.2 µM (inactive)
same,GI50,DLD-1,14.4 µM (inactive)
same,GI50,HCT-116,13.1 µM (inactive)
same,GI50,SK-MEL-2,12.6 µM (inactive)
same,GI50,COLO 205,15.9 µM (inactive)
same,GI50,OVCAR-4,11.7 µM (inactive)
same,GI50,SN12C,14.9 µM (inactive)
same,GI50,SK-MEL-5,12.4 µM (inactive)
C=C1C(=O)OC2C1CCC(C)C1C=CC(=O)C12C (stereo not drawn),GI50,NCI-H226,3.75 µM (inactive)
same,GI50,SNB-78,3.14 µM (inactive)
same,GI50,UACC-257,1.97 µM (inactive)
same,GI50,SNB-75,8.15 µM (inactive)
same,GI50,IGROV-1,6.14 µM (inactive)
same,GI50,MCF7,3.92 µM (inactive)
same,GI50,HOP-62,15.5 µM (inactive)
same,GI50,SK-OV-3,28 µM (inactive)
same,GI50,786-0,1.85 µM (inactive)
same,GI50,A549,7.76 µM (inactive)
same,GI50,U-251,11.9 µM (inactive)
same,GI50,SK-MEL-28,2.05 µM (inactive)
same,GI50,SF-295,6.81 µM (inactive)
same,GI50,T47D,2.45 µM (inactive)
same,GI50,OVCAR-8,2.06 µM (inactive)
same,GI50,UO-31,4.75 µM (inactive)
same,GI50,MDA-MB-435,1.73 µM (inactive)
same,GI50,CAKI-1,2.97 µM (inactive)
same,GI50,Malme-3M,2.5 µM (inactive)
same,GI50,A498,12.1 µM (inactive)
same,GI50,OVCAR-5,4.53 µM (inactive)
same,GI50,HOP-92,4.1 µM (inactive)
same,GI50,MDA-N,1.77 µM (inactive)
same,GI50,HT-29,2.02 µM (inactive)
same,GI50,HOP-18,6.65 µM (inactive)
same,GI50,RPMI-8226,1.81 µM (inactive)
same,GI50,CCRF-CEM,1.34 µM (inactive)
same,GI50,HCT-15,1.82 µM
same,GI50,SF-268,8.61 µM (inactive)
same,GI50,PC-3,4.49 µM (inactive)
same,GI50,LOX IMVI,1.93 µM (inactive)
same,GI50,NCI-H460,4.84 µM (inactive)
same,GI50,NCI/ADR-RES,1.41 µM (inactive)
same,GI50,MDA-MB-231,2.19 µM (inactive)
same,GI50,DMS-273,4.08 µM (inactive)
same,GI50,SF-539,2.74 µM (inactive)
same,GI50,Hs-578T,2.56 µM (inactive)
same,GI50,SNB-19,14.7 µM (inactive)
same,GI50,LXFL 529,1.58 µM (inactive)
same,GI50,HL-60,1.41 µM (inactive)
same,GI50,KM12,2.16 µM (inactive)
same,GI50,K562,2.48 µM (inactive)
same,GI50,NCI-H522,0.891 µM (active)
same,GI50,NCI-H23,3.25 µM (inactive)
same,GI50,M19-MEL,3.36 µM (inactive)
same,GI50,RXF 393,1.84 µM (inactive)
same,GI50,HCC 2998,12 µM (inactive)
same,GI50,UACC-62,1.79 µM (inactive)
same,GI50,SW-620,1.8 µM (inactive)
same,GI50,DU-145,2.53 µM (inactive)
same,GI50,SR,1.51 µM (inactive)
same,GI50,XF498,3.29 µM (inactive)
same,GI50,ACHN,1.73 µM (inactive)
same,GI50,EKVX,8.79 µM (inactive)
same,GI50,KM-20L2,3.61 µM (inactive)
same,GI50,M14,1.95 µM (inactive)
same,GI50,TK-10,3.05 µM (inactive)
same,GI50,MOLT-4,2.46 µM (inactive)
same,GI50,OVCAR-3,1.22 µM (inactive)
same,GI50,DLD-1,1.89 µM (inactive)
same,GI50,HCT-116,1.74 µM (inactive)
same,GI50,SK-MEL-2,4.39 µM (inactive)
same,GI50,COLO 205,2.17 µM (inactive)
same,GI50,OVCAR-4,6.76 µM (inactive)
same,GI50,SN12C,3.33 µM (inactive)
same,GI50,SK-MEL-5,3.33 µM (inactive)
same,GI50,BT-549,1.63 µM (inactive)
Clc1ccc2c(Cl)nc(-c3ccccc3)nc2c1,GI50,NCI-H226,13.2 µM (inactive)
same,GI50,SNB-78,11.4 µM (inactive)
same,GI50,UACC-257,26.2 µM (inactive)
same,GI50,SNB-75,17.7 µM (inactive)
same,GI50,IGROV-1,24.5 µM (inactive)
same,GI50,HOP-62,53.2 µM (inactive)
same,GI50,SK-OV-3,14.1 µM (inactive)
same,GI50,U-251,11.8 µM (inactive)
same,GI50,SK-MEL-28,32.2 µM (inactive)
same,GI50,SF-295,25.2 µM (inactive)
same,GI50,OVCAR-8,34 µM (inactive)
same,GI50,UO-31,24.5 µM (inactive)
same,GI50,CAKI-1,23.6 µM (inactive)
same,GI50,Malme-3M,24.3 µM (inactive)
same,GI50,A498,37.4 µM (inactive)
same,GI50,OVCAR-5,51.8 µM (inactive)
same,GI50,HT-29,26.4 µM (inactive)
same,GI50,RPMI-8226,10 µM (inactive)
same,GI50,CCRF-CEM,22.9 µM (inactive)
same,GI50,SF-268,24.9 µM (inactive)
same,GI50,NCI-H460,24.3 µM (inactive)
same,GI50,DMS-273,36.7 µM (inactive)
same,GI50,SNB-19,35.6 µM (inactive)
same,GI50,LXFL 529,26.9 µM (inactive)
same,GI50,HL-60,20.2 µM (inactive)
same,GI50,KM12,36.8 µM (inactive)
same,GI50,K562,23.4 µM (inactive)
same,GI50,NCI-H23,10.7 µM (inactive)
same,GI50,M19-MEL,47.1 µM (inactive)
same,GI50,DMS-114,18.6 µM (inactive)
same,GI50,RXF 393,23.4 µM (inactive)
same,GI50,HCC 2998,34.8 µM (inactive)
same,GI50,UACC-62,19.4 µM (inactive)
same,GI50,SW-620,33.9 µM (inactive)
same,GI50,SR,25.2 µM (inactive)
same,GI50,XF498,3.88 µM (inactive)
same,GI50,ACHN,20.9 µM (inactive)
same,GI50,EKVX,11.4 µM (inactive)
same,GI50,KM-20L2,25.6 µM (inactive)
same,GI50,TK-10,46.1 µM (inactive)
same,GI50,MOLT-4,20.2 µM (inactive)
same,GI50,OVCAR-3,17.2 µM (inactive)
same,GI50,DLD-1,27.6 µM (inactive)
same,GI50,HCT-116,27.4 µM (inactive)
same,GI50,SK-MEL-2,26.4 µM (inactive)
same,GI50,COLO 205,41.2 µM (inactive)
same,GI50,SN12C,21.8 µM (inactive)
same,GI50,SK-MEL-5,16.5 µM (inactive)
C/C=C(\C)c1cc(=O)c2c(C)cc3c(c2o1)C(=O)c1c(O)c(C2CC(C)(N(C)C)C(O)C(C)O2)cc(C2CC(N(C)C)C(O)C(C)O2)c1C3=O (stereo not drawn),GI50,SNB-78,3.87 µM (inactive)
same,GI50,786-0,0.13 µM (active)
same,GI50,T47D,0.257 µM (active)
same,GI50,MDA-MB-435,0.217 µM (active)
same,GI50,HOP-92,0.256 µM (active)
same,GI50,MDA-N,0.178 µM (active)
same,GI50,HOP-18,0.154 µM (active)
same,GI50,PC-3,0.229 µM (active)
same,GI50,MDA-MB-231,0.156 µM (active)
same,GI50,DMS-273,1.91 µM (inactive)
same,GI50,Hs-578T,0.247 µM (active)
same,GI50,M19-MEL,3.21 µM (inactive)
same,GI50,DMS-114,1.5 µM (inactive)
same,GI50,DU-145,0.138 µM (active)
same,GI50,SR,0.267 µM (active)
same,GI50,XF498,< 0.01 µM (active)
same,GI50,ACHN,0.0789 µM (active)
same,GI50,KM-20L2,2.81 µM (inactive)
same,GI50,M14,0.129 µM (active)
same,GI50,TK-10,0.237 µM (active)
same,GI50,DLD-1,2.31 µM (inactive)
same,GI50,BT-549,0.223 µM (active)

# — ChEMBL document CHEMBL1201862, “PubChem BioAssay data set” (2004)
